{
  "source": "patent US20110256121A1",
  "about": "“METHODS AND KITS FOR DIAGNOSING OR MONITORING AUTOIMMUNE AND CHRONIC INFLAMMATORY DISEASES” (THE REGENTS OF THE UNIVERSITY OF MICHIGAN, priority 2008, published 2011)",
  "assay_type_in_all_cases": "cell-based, human",
  "key": {"KIR2DL2": {"system": "KIR2DL2", "assay": "KIR2DL2 expression on T cells by flow cytometry", "experimental": "T cell purification and culture. Peripheral blood mononuclear cells (PBMC) were isolated from healthy donors by density gradient centrifugation, stimulated for 18 hours with 1 μg/mlphytohemagglutinin (PHA) (Murex, Norcross, Ga.), then treated or not with 5 μm 5-azacytidine (5-azaC, Sigma, St. Louis, Mo.) for 72 hours as described (6). Total T cells, CD4^+ T cells or CD8′ T cells then were purified using the pan T cell isolation kit II or the CD4^+ and CD8^+ T cell isolation kit II from Miltenyi (Auburn, Calif.). T cells were typically >94% CD3^+ by flow cytometry. Jurkat cells (E6-1) were maintained in culture as described (11). This protocol was approved by the University of Michigan Institutional Review Board.\nFlow Cytometric Analysis. The following monoclonal antibodies were used: CYC-anti-CD3, FITC-anti-CD8, CYC-anti-CD4, FITC-anti-CD28, CYC-mouse IgG1 and FITC-mouse-IgG1 (all from BD PharMingen, San Diego, Calif.). Anti-CD158b1/b2, j-PE (GL183, reactive with KIR 2DL2/2DL3/2DS2) was obtained from Beckman Coulter Immunotech (Buckinghamshire, UK), anti-CD158d-PE (anti-KIR2DL4) from R&D Systems (Minneapolis, Minn.), and PE-mouse-IgG2A from Abcam (Cambridge Mass.). Cell staining and fixation were performed as described (2; 6), and cells analyzed using a FACSCalibur flow cytometer (BD Biosciences, Franklin Lakes, N.J.).\nConfirmation at the protein and mRNA levels. The effect of 5-azaC on KIR2DL2 and KIR2DL4 was confirmed in CD4+ and CD8+ T cells at the protein and mRNA levels. […] 5-azaC induces KIR2DL2 expression on both subsets, but a greater increase is seen on the CD8+ subset. FIG. 25b summarizes the effect of 5-azaC on KIR2DL2 expression in CD4+ and CD8+ T cells from healthy subjects. […] Since KIR is primarily expressed on CD28− T cells (24), KIR2DL2 expression was compared on CD28+ and CD28− T cells with and without 5-azaC treatment. KIR2DL2 expression increased on the CD28+ subset relative to untreated cells (1.9±0.2% vs 0.1±0.1%, 5-azaC treated vs untreated, n=3, p<0.001), but not on the CD28− subset (0.27±0.13% vs 0.30±0.18%, treated vs untreated, n=3)."}, "KIR2DL4": {"system": "KIR2DL4", "assay": "Cell stimulation with immobilized anti-KIR2DL4 and IFN-γ quantitation (Example 15)", "conditions": "without anti-KIR2DL4 crosslinking, p<0.001", "experimental": "Cell stimulation and IFN-γ quantitation. Anti-human KIR2DL4 (R&D systems) or isotype matched control (10 μg/ml in PBS) were added to 24 well plates, incubated 6 hours 37° C., then the wells were washed twice with PBS to remove unbound antibody. 2×10^5 T cells were then added to the coated wells in RPMI 1640 supplemented with 10% FBS and cultured for 20 hours. The supernatant was then recovered and IFN-γ levels measured using a human IFN-γ ELISA kit (R&D Systems).\nKIR function in 5-azaC treated T cells. It was determined if 5-azaC induced KIR2DL4 stimulates IFN-γ in T cells. PBMC were stimulated with PHA for 18 hours, treated with 5-azaC, then 72 hours later CD4+ and CD8+ cells were isolated, stimulated for 6 hours with immobilized anti-KIR2DL4 or an isotype matched antibody, then IFN-γ was measured in the supernatant by ELISA."}, "KIR": {"system": "KIR", "assay": "KIR expression on 5-azaC treated T cells, anti-KIR antibody cocktail, flow cytometry", "excerpt": "Antibodies: Unconjugated and PE-conjugated anti-CD158d (KIR2DL4) were purchased from R&D Systems, Minneapolis, Minn. and unconjugated and PE-conjugated anti-NKB1 (KIR3DL1), anti-perforin antibodies and isotype matched control antibodies were obtained from BD PharMingen, San Diego Calif. PE-conjugated anti-CD158i (KIR2DS4) was obtained from Beckman Coulter (Fullerton Calif.). Anti-CD4-Cy5, anti-CD8-FITC, and PE-conjugated antibodies to and KIR2DS2 (anti-CD158b) were obtained from BD PharMingen, KIR2DL1/2DS2 (CD158a/h) and KIR3DL1/3DS1 (CD158e1/e2) from Beckman Coulter, and 2DL1/2DL3/2DS2 (anti-CD158 b1/b2/j (GL183) was purchased from R&D Systems. Minneapolis, Minn.). Ten microliters of each PE-conjugated anti-KIR antibody were mixed to form a “cocktail” used to stain the cells. […] Following staining, the cells were fixed in 1% paraformaldehyde and kept at 4° C. until analyzed. […]\nCD4+ and CD8+ T cells demethylate and express KIR genes following treatment with the DNA methylation inhibitor 5-azaC. PBMC from 11 healthy subjects were stimulated with PHA, treated with 5-azaC, then KIR expression was measured on untreated and treated CD4+ and CD8+ cells using a “cocktail” of anti-KIR antibodies and flow cytometry as described in Materials and Methods above."}},
  "data": [
    {"smiles": "Nc1ncn([C@@H]2O[C@H](CO)[C@@H](O)[C@H]2O)c(=O)n1", "note": "[5-azaC, 5-azacytidine]", "values": [
      {"measurement": "KIR2DL2 expression on CD4+ and CD8+ T cells", "setting": "KIR2DL2; 5-azaC 72 h, p<0.001 for each subset", "value": "increases KIR2DL2 expression on both"},
      {"measurement": "CD4 or CD8 expression", "setting": "KIR2DL2; 5-azaC treated T cells", "value": "no significant effect"},
      {"measurement": "KIR2DL2 expression on the CD28+ subset", "setting": "KIR2DL2; 5-azaC treated, untreated 0.1±0.1%, n=3, p<0.001", "value": "1.9±0.2", "unit": "%"},
      {"measurement": "KIR2DL2 expression on the CD28− subset", "setting": "KIR2DL2; 5-azaC treated, untreated 0.30±0.18%, n=3", "value": "0.27±0.13", "unit": "%"},
      {"measurement": "IFN-γ secretion by 5-azaC treated CD4+ and CD8+ T cells", "setting": "KIR2DL4", "value": "secrete significant (p<0.001) amounts of IFN-γ"},
      {"measurement": "expression of additional KIR proteins on T cells", "setting": "KIR", "value": "induced expression of additional KIR proteins including KIR3DL1, KIR2DS4 and KIR2DL2/2DL3"},
      {"measurement": "KIR expression on CD4+ and CD8+ T cells", "setting": "KIR; 11 healthy subjects, PHA, anti-KIR cocktail", "value": "significantly increases KIR expression"}
    ]}
  ]
}
